Converted amounts (≈) assume the structure as drawn.

A short description of series [1]: Inhibition of Mycobacterium tuberculosis AHAS catalytic subunit assessed as inhibition of acetoin formation using […] as substrate after 1 hr.
The test system of series [2] is Mycobacterium tuberculosis. Briefly: Inhibition of Mycobacterium tuberculosis AHAS catalytic subunit assessed as inhibition of acetoin formation using […] as substrate at 100 uM after 1 hr.
For series [3], the system named is Mycobacterium tuberculosis. Nature of the series: Antitubercular activity against Mycobacterium tuberculosis H37Rv ATCC 27294 assessed as inhibition of bacterial growth after 4 weeks by two-fold dilution technique. The class given is functional. Conditions: H37Rv ATCC 27294, 672 h.
Series [4] concerns Mycobacterium tuberculosis. Nature of the series: Antitubercular activity against isoniazid, rifampin, streptomycin, ethambutol, amikacin, ofloxacin, kanamycin-susceptible Mycobacterium tuberculosis assessed as inhibition of bacterial growth after 4 weeks by two-fold dilution technique. The class given is functional. The settings on record: 672 h.
Series [5] concerns Mycobacterium tuberculosis. Nature of the series: Antitubercular activity against isoniazid, rifampin, streptomycin, ethambutol, amikacin, ofloxacin, kanamycin-susceptible Mycobacterium tuberculosis infected in human THP-1 cells assessed as inhibition of intracellular activity at 10 mg/L after 4 days. The class given is functional. The settings on record: THP-1, 96 h.
Series [6] deals with Mycobacterium tuberculosis. Nature of the series: Antitubercular activity against Mycobacterium tuberculosis H37Rv ATCC 27294 infected in human THP-1 cells assessed as inhibition of intracellular activity at 20 mg/L after 4 days. Type of series: functional. The settings on record: H37Rv ATCC 27294, THP-1, 96 h.
The test system of series [7] is Mycobacterium tuberculosis. Nature of the series: Antitubercular activity against isoniazid, rifampin, streptomycin, ethambutol, amikacin, ofloxacin, kanamycin-susceptible Mycobacterium tuberculosis infected in human THP-1 cells assessed as inhibition of intracellular activity at 20 mg/L after 4 days. The class given is functional. Conditions: THP-1, 96 h.
Series [8] has as its system Mycobacterium tuberculosis. Nature of the series: Antitubercular activity against Mycobacterium tuberculosis H37Rv ATCC 27294 infected in human THP-1 cells assessed as inhibition of intracellular activity at 10 mg/L after 4 days. The class given is functional. The settings on record: H37Rv ATCC 27294, THP-1, 96 h.
A further series deals with THP-1. Nature of the series: Cytotoxicity against human THP1 cells at 20 mg/L by MTT assay. The class given is cell-based. Background: Tetrazolium assays rely on reduction of a dye to a coloured formazan, in cell work by metabolically active cells.

Usually IC50 stands for the concentration that gives 50% inhibition. For orientation: inhibition means how much of the control response was suppressed. As usually defined, the MIC is the smallest concentration in the dilution series that meets the test's criterion for growth inhibition. Consider `Cc1cccc(C(=O)On2c(-c3cccc(C)c3)nc3ccccc3c2=O)c1`, for which, in series [1], the IC50 was over 100 µM. Further, the inhibition in series [2] was determined as 10.5%. Moreover, in series [3], the MIC was over 50 µg/mL.
For `COc1cccc(-c2nc3ccccc3c(=O)n2OC(=O)c2cccc([N+](=O)[O-])c2)c1`, in series [1], the IC50 turned out to be 8.74 µM. The inhibition in [2] came out at 94%. Moreover, the MIC in [3] and in series [4] was 5 µg/mL (≈ 12 µM) in each case.
On to `COC(=O)c1ccccc1S(=O)(=O)NC(=O)Nc1nc(C)cc(C)n1` [SULFOMETURON METHYL], for which the IC50 in [1] amounted to 4.79 µM. Further, the MIC in series [3] and in [4] was 10 µg/mL (≈ 27.4 µM) in each case. Also, the inhibition at 10 µg/mL in series [5] was determined as 15.5%; in series [8], 15.9%. Moreover, the figures for the inhibition at 20 µg/mL in series [6] and in series [7] were 32.5% and 32.3%, respectively.
Turning to `O=C(On1c(-c2cccc(F)c2)nc2ccccc2c1=O)c1cccc(Cl)c1`, the IC50 in [1] was over 100 µM. Besides, in series [2], the inhibition amounted to 42.5%. Besides, the MIC in series [3] is over 50 µg/mL.
In the case of `COc1cccc(C(=O)On2c(-c3ccccc3)nc3ccccc3c2=O)c1`, in [1], the IC50 is over 100 µM. Besides, the inhibition in series [2] is 27%. Besides, the MIC in series [3] is over 50 µg/mL.
Turning to `O=C(On1c(-c2ccccc2)nc2ccccc2c1=O)c1cccc([N+](=O)[O-])c1`, the IC50 in [1] was 9.68 µM. For the same compound, in [2], the inhibition came out at 91.5%. Besides, the MIC in [3] and in series [4] was 5 µg/mL (≈ 12.9 µM) each time.
`O=C(On1c(-c2cccc(F)c2)nc2ccccc2c1=O)c1ccccc1`: the IC50 in [1] was over 100 µM. Further, the inhibition in series [2] amounted to 26%. Moreover, the MIC in series [3] came out at 50 µg/mL (≈ 139 µM).
With `Cc1cccc(-c2nc3ccccc3c(=O)n2OC(=O)c2ccccc2)c1`, the IC50 in series [1] was over 100 µM. The inhibition in series [2] came to 40.5%. Moreover, in series [3], the MIC was over 50 µg/mL.
As to `Cc1cccc(C(=O)On2c(-c3ccccc3)nc3ccccc3c2=O)c1`, in series [1], the IC50 was over 100 µM. Further, in series [2], the inhibition was found to be 4%. Moreover, the MIC in [3] is over 50 µg/mL.
As for `O=C(On1c(-c2cccc(F)c2)nc2ccccc2c1=O)c1cccc(F)c1`, the IC50 in series [1] was 6.5 µM. The inhibition in [2] was 72%. Moreover, the MIC in series [3] and in series [4] was 2.5 µg/mL (≈ 6.61 µM) each time. Further, the inhibition at 10 µg/mL in series [5] was determined as 23.4%; in [8], 24.8%. The Activity result in the series with THP-1 is given as “Non-toxic”. The inhibition at 20 µg/mL is 49.5% in series [6] and 48.2% in series [7].
On to `Cc1ccccc1C(=O)On1c(-c2ccccc2)nc2ccccc2c1=O`, for which the IC50 in series [1] is over 100 µM. Also, in [2], the inhibition was 16.5%. In series [3], the MIC was over 50 µg/mL.
Turning to `CO[C@H]1/C=C/O[C@@]2(C)Oc3c(C)c(O)c4c(O)c(c(/C=N/N5CCN(C)CC5)c(O)c4c3C2=O)NC(=O)/C(C)=C\C=C\[C@H](C)[C@H](O)[C@@H](C)[C@@H](O)[C@@H](C)[C@H](OC(C)=O)[C@@H]1C` [RIFAMPIN], the MIC in [4] came to 0.4 µg/mL (≈ 0.486 µM).
`O=C(On1c(-c2ccccc2)nc2ccccc2c1=O)c1cccc(Cl)c1`: the IC50 in [1] stood at 12.1 µM. The inhibition in series [2] was 80.5%. Besides, the MIC in [3] and in series [4] was 5 µg/mL (≈ 13.3 µM) throughout.
For `Cc1ccccc1-c1nc2ccccc2c(=O)n1OC(=O)c1cccc(F)c1`, in series [1], the IC50 was over 100 µM. Further, the inhibition in series [2] was determined as 30%. Besides, the MIC in series [3] is over 50 µg/mL.
On to `O=C(On1c(-c2ccccc2)nc2ccccc2c1=O)c1ccccc1`, for which the IC50 in series [1] is over 100 µM. Besides, the inhibition in series [2] is 20.5%. Besides, the MIC in series [3] was over 50 µg/mL.
The corresponding values for `Cc1cccc(-c2nc3ccccc3c(=O)n2OC(=O)c2cccc(C(F)(F)F)c2)c1` are over 100 µM, 9.5% and over 50 µg/mL.
Consider `O=C(On1c(-c2ccccc2)nc2ccccc2c1=O)c1ccc(Cl)cc1`, for which, in [1], the half-inhibitory concentration (IC50) was over 100 µM. Moreover, the inhibition in series [2] worked out at 7.5%. Moreover, in series [3], the MIC is over 50 µg/mL.
Regarding `COc1cccc(-c2nc3ccccc3c(=O)n2OC(=O)c2cccc(Cl)c2)c1`, the IC50 in series [1] was over 100 µM. For the same compound, the inhibition in [2] worked out at 23.5%. In addition, the minimal inhibitory concentration (MIC) in series [3] is over 50 µg/mL.
The corresponding values for `Cc1cccc(-c2nc3ccccc3c(=O)n2OC(=O)c2ccc(Cl)cc2)c1` are over 100 µM, 0% and over 50 µg/mL.
Consider `COc1cccc(-c2nc3ccccc3c(=O)n2OC(=O)c2cccc(C(F)(F)F)c2)c1`, for which the IC50 in series [1] was 9.57 µM. Besides, the inhibition in [2] was 73.2%. Also, the MIC in [3] and in [4] was 10 µg/mL (≈ 22.7 µM) in each case.
For `O=C(On1c(-c2cccc(F)c2)nc2ccccc2c1=O)c1cccc(C(F)(F)F)c1`, the IC50 in series [1] was over 100 µM. Also, in series [2], the inhibition was 30%. Moreover, the minimum inhibitory concentration (MIC) in series [3] was over 50 µg/mL.
Turning to `COc1cccc(C(=O)On2c(-c3cccc(F)c3)nc3ccccc3c2=O)c1`, the IC50 in series [1] is over 100 µM. The inhibition in [2] was found to be 28%. Also, the MIC in series [3] worked out at 50 µg/mL (≈ 128 µM).
`Cc1cccc(-c2nc3ccccc3c(=O)n2OC(=O)c2cccc(F)c2)c1`: the IC50 in series [1] is over 100 µM. Moreover, in series [2], the inhibition was 9.5%. Moreover, the MIC in [3] was over 50 µg/mL.
As to `Cc1ccc(C(=O)On2c(-c3ccccc3)nc3ccccc3c2=O)cc1`, the IC50 in [1] was over 100 µM. Moreover, in series [2], the inhibition was found to be 18%. In addition, the MIC in [3] was over 50 µg/mL.
Consider `Cc1ccc(C(=O)On2c(-c3cccc(C)c3)nc3ccccc3c2=O)cc1`, for which the IC50 in series [1] was over 100 µM. Also, in [2], the inhibition was found to be 33%. The MIC in series [3] is over 50 µg/mL.
Take `O=C(On1c(-c2ccccc2)nc2ccccc2c1=O)c1cccc(F)c1`: in series [1], the IC50 was over 100 µM. The inhibition in [2] is 26%. Besides, in series [3], the MIC was over 50 µg/mL.
Take `NNC(=O)c1ccncc1` [ISONIAZID]: the MIC in series [4] was 0.2 µg/mL (≈ 1.46 µM).

The values are drawn from ChEMBL document CHEMBL3425445, “Synthesis, crystal structure and biological evaluation of substituted quinazolinone benzoates as novel antituberculosis agents targeting acetohydroxyacid synthase” (Eur J Med Chem, 2015).
